Source: US11529341B2, “Bicyclic compounds as inhibitors of PD1/PD-L1 interaction/activation” (JUBILANT PRODEL LLC, priority 2018, dated 2022)

Molecular target: T1, PD-1/PD-L1 interaction (Homo sapiens, UniProt Q9NZQ7)
T1 construct: Tag1 (undisclosed kit tag); purchased CisBio 63ADK000CPAPEG
Assay: PD-1/PD-L1 Homogenous Time-Resolved Fluorescence (HTRF) binding assay (CisBio kit)
Settings: Biochemical PD1/PD-L1 inhibition
Method: PD-L1 Enzyme Assay: Homogenous Time-Resolved Fluorescence (HTRF) Binding Assay
All binding studies were performed using PD-1/PD-L1 Binding Assay Kit from CisBio (Catalog #63ADK000CPAPEG), according to the manufacturer's protocol. The interaction between Tag1-PD-1 and […] was detected by anti-Tag1-Eu^3+ (HTRF donor) and anti-Tag2-XL665 (HTRF acceptor). When the donor and acceptor antibodies were brought to close proximity due to PD-1 and PD-L1 binding, excitation of the donor antibody triggered fluorescent resonance energy transfer (FRET) towards the acceptor antibody, which in turn emitted specifically at 665 nm. This specific signal is positively proportional to PD-1/PD-L1 interaction. The compounds blocking PD-1/PD-L1 interaction will cause a reduction in HTRF signal. The necessary reagents were mixed in the following order: 2 μl compounds (or diluents buffer), 4 μl PD-L1 protein, 4 μl PD-1 protein. After an incubation of 15 minutes, 5 μl of anti-Tag1-Eu^3+ and 5 μl of anti-Tag2-XL665 were added. The plate was sealed and incubated at room temperature for 1 h. The fluorescence emission was read at two different wavelengths (665 nm and 620 nm) on a BMG PheraStar® multi-plate reader. Results were calculated from the 665 nm and 620 nm fluorescence signal and expressed in HTRF ratio=(665 nm/620 nm)×10^4.

T1 sequence (Q9NZQ7 19-238 limits assumed): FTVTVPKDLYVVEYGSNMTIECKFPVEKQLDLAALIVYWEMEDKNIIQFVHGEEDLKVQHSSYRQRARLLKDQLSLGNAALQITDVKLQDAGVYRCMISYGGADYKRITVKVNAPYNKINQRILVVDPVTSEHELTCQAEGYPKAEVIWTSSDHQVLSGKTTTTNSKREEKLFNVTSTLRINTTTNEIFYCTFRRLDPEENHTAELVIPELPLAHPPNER

| IC50 [nM] | Compound |
| --- | --- |
| < 100 | Cc1c(COc2cc(OCc3cccc(C#N)c3)c(CN3CCC[C@@H]4C[C@@]43C(=O)O)c3c2CCC3)cccc1-c1ccccc1 (racemic) [Compound 43, rac-(1R,6S)-2-((5-((3-cyanobenzyl)oxy)-7-((2-methyl-[1,1′-biphenyl]-3-yl)methoxy)-2,3-dihydro-1H-inden-4-yl)methyl)-2-azabicyclo[4.1.0]heptane-1-carboxylic acid] |
| 100 to 500 | COc1cc(OCc2cccc(-c3ccccc3)c2C)c2c(c1CN1CCC[C@H]3C[C@]31C(=O)O)CCC2 (racemic) [Compound 45, (1R,6S)-2-((5-methoxy-7-((2-methyl-[1,1′-biphenyl]-3-yl)methoxy)-2,3-dihydro-1H-inden-4-yl)methyl)-2-azabicyclo[4.1.0]heptane-1-carboxylic acid] |
| < 100 | Cc1c(COc2cc(OCc3cncc(C#N)c3)c(CN3CCC[C@@H]4C[C@@]43C(=O)O)c3c2CCC3)cccc1-c1ccccc1 (racemic) [Compound 51, rac-(1R,6S)-2-((5-((5-cyanopyridin-3-yl)methoxy)-7-((2-methyl-[1,1′-biphenyl]-3-yl)methoxy)-2,3-dihydro-1H-inden-4-yl)methyl)-2-azabicyclo[4.1.0]heptane-1-carboxylic acid] |
| < 100 | COc1cc(OCc2cccc(-c3ccccc3)c2C#N)c2c(c1CN1CCC[C@@H]3C[C@@]31C(=O)O)CCC2 (racemic) [Compound 62, rac-(1R,6S)-2-((7-((2-cyano-[1,1′-biphenyl]-3-yl)methoxy)-5-methoxy-2,3-dihydro-1H-inden-4-yl)methyl)-2-azabicyclo[4.1.0]heptane-1-carboxylic acid] |
| < 100 | N#Cc1cncc(COc2cc(OCc3cccc(-c4ccccc4)c3C#N)c3c(c2CN2CCC[C@@H]4C[C@@]42C(=O)O)CCC3)c1 (racemic) [Compound 72, rac-(1R,6S)-2-((7-((2-cyano-[1,1′-biphenyl]-3-yl)methoxy)-5-((5-cyanopyridin-3-yl)methoxy)-2,3-dihydro-1H-inden-4-yl)methyl)-2-azabicyclo[4.1.0]heptane-1-carboxylic acid] |
| 100 to 500 | Cc1c(COc2ccc(CN3CCCC[C@H]3C(=O)O)c3c2CCC3)cccc1-c1ccccc1 [Compound 1, (S)-1-((7-((2-methyl-[1,1′-biphenyl]-3-yl)methoxy)-2,3-dihydro-1H-inden-4-yl)methyl) piperidine-2-carboxylic acid] |
| 100 to 500 | COc1cc(OCc2cccc(-c3ccccc3)c2C)c2c(c1CNCCNC(C)=O)CCC2 [Compound 2, N-(2-(((5-methoxy-7-((2-methyl-[1,1′-biphenyl]-3-yl)methoxy)-2,3-dihydro-1H-inden-4-yl)methyl)amino)ethyl)acetamide] |
| > 500 | Cc1c(COc2ccc(CN3CCCC[C@H]3C(=O)O)c3c2CCC3)cccc1-c1cccc2c1ccn2CCCN1CCC(F)(F)C1 [Compound 3, (S)-1-((7-((3-(1-(3-(3,3-difluoropyrrolidin-1-yl)propyl)-1H-indol-4-yl)-2-methylbenzyl)oxy)-2,3-dihydro-1H-inden-4-yl)methyl)piperidine-2-carboxylic acid] |
| 100 to 500 | Cc1cc(CN2CCCC[C@H]2C(=O)O)c2c(c1OCc1cccc(-c3ccccc3)c1C)CCC2 [Compound 4, (S)-1-((6-methyl-7-((2-methyl-[1,1′-biphenyl]-3-yl)methoxy)-2,3-dihydro-1H-inden-4-yl)methyl)piperidine-2-carboxylic acid] |
| 100 to 500 | Cc1c(COc2c(Cl)cc(CN3CCCC[C@H]3C(=O)O)c3c2CCC3)cccc1-c1ccccc1 [Compound 5, (S)-1-((6-chloro-7-((2-methyl-[1,1′-biphenyl]-3-yl)methoxy)-2,3-dihydro-1H-inden-4-yl)methyl)piperidine-2-carboxylic acid] |
| > 500 | COC(=O)c1cc(CNCCNC(C)=O)c2c(c1OCc1cccc(-c3ccccc3)c1C)CCC2 [Compound 6, Methyl 7-(((2-acetamidoethyl)amino)methyl)-4-((2-methyl-[1,1′-biphenyl]-3-yl)methoxy)-2,3-dihydro-1H-indene-5-carboxylate] |
| > 500 | COc1cc(OCc2cccc(-c3cccc(OCCCN4CCC(F)(F)C4)c3C)c2C)c2c(c1CN1CCCC[C@H]1C(=O)O)CCC2 [Compound 7, (S)-1-((7-((3′-(3-(3,3-difluoropyrrolidin-1-yl)propoxy)-2,2′-dimethyl-[1,1′-biphenyl]-3-yl)methoxy)-5-methoxy-2,3-dihydro-1H-inden-4-yl)methyl)piperidine-2-carboxylic acid] |
| < 100 | Cc1c(COc2cc(OCc3cccc(C#N)c3)c(CN3CCCC[C@H]3C(=O)O)c3c2CCC3)cccc1-c1ccccc1 [Compound 8, (S)-1-((5-((3-cyanobenzyl)oxy)-7-((2-methyl-[1,1′-biphenyl]-3-yl)methoxy)-2,3-dihydro-1H-inden-4-yl)methyl)piperidine-2-carboxylic acid] |
| < 100 | Cc1c(COc2cc(OCc3cncc(F)c3)c(CN3CCCC[C@H]3C(=O)O)c3c2CCC3)cccc1-c1ccccc1 [Compound 9, (S)-1-((5-((5-fluoropyridin-3-yl)methoxy)-7-((2-methyl-[1,1′-biphenyl]-3-yl)methoxy)-2,3-dihydro-1H-inden-4-yl)methyl)piperidine-2-carboxylic acid] |
| < 100 | CC(=O)NCCNCc1c(OCc2cncc(F)c2)cc(OCc2cccc(-c3ccccc3)c2C)c2c1CCC2 [Compound 10, N-(2-(((5-((5-fluoropyridin-3-yl)methoxy)-7-((2-methyl-[1,1′-biphenyl]-3-yl)methoxy)-2,3-dihydro-1H-inden-4-yl)methyl)amino)ethyl)acetamide] |
| < 100 | COc1cc(OCc2cccc(-c3ccccc3)c2C)c2c(c1CN1CC3(CC3)C[C@H]1C(=O)O)CCC2 [Compound 11, (S)-5-((5-methoxy-7-((2-methyl-[1,1′-biphenyl]-3-yl)methoxy)-2,3-dihydro-1H-inden-4-yl)methyl)-5-azaspiro[2.4]heptane-6-carboxylic acid] |
| < 100 | Cc1c(COc2cc(OCC(F)(F)F)c(CN3CCCC[C@H]3C(=O)O)c3c2CCC3)cccc1-c1ccccc1 [Compound 12, (S)-1-((7-((2-methyl-[1,1′-biphenyl]-3-yl)methoxy)-5-(2,2,2-trifluoroethoxy)-2,3-dihydro-1H-inden-4-yl)methyl)piperidine-2-carboxylic acid] |
| < 100 | CC(=O)N(C)CCNCc1c(OCc2cccc(C#N)c2)cc(OCc2cccc(-c3ccccc3)c2C)c2c1CCC2 [Compound 13, N-(2-(((5-((3-cyanobenzyl)oxy)-7-((2-methyl-[1,1′-biphenyl]-3-yl)methoxy)-2,3-dihydro-1H-inden-4-yl)methyl)amino)ethyl)-N-methylacetamide] |
| > 500 | CC(=O)NCCNCc1c(OC(C)c2cccc(C#N)c2)cc(OCc2cccc(-c3ccccc3)c2C)c2c1CCC2 (centres unmarked) [Compound 14, N-(2-(((5-(1-(3-cyanophenyl)ethoxy)-7-((2-methyl-[1,1′-biphenyl]-3-yl)methoxy)-2,3-dihydro-1H-inden-4-yl)methyl)amino)ethyl)acetamide] |
| < 100 | CC(=O)NC1CCCN(Cc2c(OCc3cccc(C#N)c3)cc(OCc3cccc(-c4ccccc4)c3C)c3c2CCC3)C1 (centres unmarked) [Compound 15, N-(1-((5-((3-cyanobenzyl)oxy)-7-((2-methyl-[1,1′-biphenyl]-3-yl)methoxy)-2,3-dihydro-1H-inden-4-yl)methyl)piperidin-3-yl)acetamide] |
| > 500 | CC(=O)NCCNCc1ccc(OCc2cccc(-c3ccccc3)c2C)c2c1CCC2 [Compound 16, N-(2-(((7-((2-methyl-[1,1′-biphenyl]-3-yl)methoxy)-2,3-dihydro-1H-inden-4-yl)methyl)amino)ethyl)acetamide] |
| > 500 | Cc1c(COc2ccc(CN3CC4(COC4)C3)c3c2CCC3)cccc1-c1ccccc1 [Compound 17, 6-((7-((2-methyl-[1,1′-biphenyl]-3-yl)methoxy)-2,3-dihydro-1H-inden-4-yl)methyl)-2-oxa-6-azaspiro[3.3]heptane] |
| 100 to 500 | Cc1c(COc2ccc(CNC(CO)(CO)CO)c3c2CCC3)cccc1-c1ccccc1 [Compound 18, 2-(hydroxymethyl)-2-(((7-((2-methyl-[1,1′-biphenyl]-3-yl)methoxy)-2,3-dihydro-1H-inden-4-yl)methyl)amino)propane-1,3-diol] |
| 100 to 500 | Cc1c(COc2ccc(CNC3(C(=O)O)CC3)c3c2CCC3)cccc1-c1ccccc1 [Compound 19, 1-(((7-((2-methyl-[1,1′-biphenyl]-3-yl)methoxy)-2,3-dihydro-1H-inden-4-yl)methyl)amino)cyclopropane-1-carboxylic acid] |
| 100 to 500 | Cc1c(COc2ccc(CNCC(=O)O)c3c2CCC3)cccc1-c1ccccc1 [Compound 20, ((7-((2-methyl-[1,1′-biphenyl]-3-yl)methoxy)-2,3-dihydro-1H-inden-4-yl)methyl)glycine] |
| > 500 | Cc1c(COc2ccc(CNCCC(=O)O)c3c2CCC3)cccc1-c1ccccc1 [Compound 21, 3-(((7-((2-methyl-[1,1′-biphenyl]-3-yl)methoxy)-2,3-dihydro-1H-inden-4-yl)methyl)amino)propanoic acid] |
